Assay results taken from the NIST ThermoML archive (doi:10.1021/je050434f).
± gives the expanded uncertainty stated by the source.

Key:
[1] = for speed of sound / mass density / viscosity: 101.33 kPa, Liquid; for speed of sound: Sing-around technique in a fixed-path interferometer; for mass density: Vibrating tube method; for surface tension liquid-gas: Pendant drop shape; for viscosity: Capillary tube (Ostwald / Ubbelohde) method
[2] = refractive index (Na D-line) (dimensionless); conditions: 101.33 kPa, Liquid, Abbe refractometer

`COS(=O)(=O)[O-].Cn1cc[n+](C)c1` [1,3-dimethylimidazolium methylsulfate] showed a speed of sound ([1]; 283.15 K) of 1851 ± 5 m/s, a mass density ([1]; 283.15 K) of 1338.24 ± 3.5 kg/m3 and a surface tension liquid-gas ([1]; 288.15 K) of 60.9 ± 1.6 mN/m. For the same compound, the speed of sound ([1]; 288.15 K) was 1838 ± 5 m/s, the mass density ([1]; 288.15 K) was 1334.54 ± 3.5 kg/m3 and the surface tension liquid-gas ([1]; 293.15 K) was 60.3 ± 1.6 mN/m. The viscosity ([1]; 293.15 K) was 92.76 ± 2.5 mPa·s, the speed of sound ([1]; 293.15 K) was 1826 ± 5 m/s and the mass density ([1]; 293.15 K) was 1330.88 ± 3.5 kg/m3. For the same compound, the surface tension liquid-gas ([1]; 298.15 K) was 59.8 ± 1.6 mN/m, the viscosity ([1]; 298.15 K) was 72.91 ± 1.9 mPa·s and the speed of sound ([1]; 298.15 K) was 1813 ± 5 m/s. It also gave a mass density ([1]; 298.15 K) of 1327.25 ± 3.5 kg/m3, a surface tension liquid-gas ([1]; 303.15 K) of 59.5 ± 1.6 mN/m and a viscosity ([1]; 303.15 K) of 58.35 ± 1.5 mPa·s. For the same compound, the speed of sound ([1]; 303.15 K) was 1801 ± 5 m/s, the mass density ([1]; 303.15 K) was 1323.65 ± 3.5 kg/m3 and the surface tension liquid-gas ([1]; 308.15 K) was 59.1 ± 1.6 mN/m. The speed of sound ([1]; 308.15 K) was 1789 ± 5 m/s, the mass density ([1]; 308.15 K) was 1320.09 ± 3.5 kg/m3 and the surface tension liquid-gas ([1]; 313.15 K) was 58.9 ± 1.6 mN/m. For the same compound, the viscosity ([1]; 313.15 K) was 39.21 ± 0.99 mPa·s, the speed of sound ([1]; 313.15 K) was 1777 ± 5 m/s and the mass density ([1]; 313.15 K) was 1316.57 ± 3.5 kg/m3. The speed of sound ([1]; 318.15 K) was 1765 ± 5 m/s, the mass density ([1]; 318.15 K) was 1313.05 ± 3.5 kg/m3 and the viscosity ([1]; 323.15 K) was 27.78 ± 0.7 mPa·s. For the same compound, the speed of sound ([1]; 323.15 K) was 1753 ± 5 m/s, the mass density ([1]; 323.15 K) was 1309.55 ± 3.5 kg/m3 and the speed of sound ([1]; 328.15 K) was 1742 ± 5 m/s. The mass density ([1]; 328.15 K) was 1306.06 ± 3.4 kg/m3, the viscosity ([1]; 333.15 K) was 21.01 ± 0.53 mPa·s and the speed of sound ([1]; 333.15 K) was 1730 ± 5 m/s. The mass density ([1]; 333.15 K) was 1302.59 ± 3.4 kg/m3, the speed of sound ([1]; 338.15 K) was 1719 ± 5 m/s and the mass density ([1]; 338.15 K) was 1299.14 ± 3.4 kg/m3. For the same compound, the viscosity ([1]; 343.15 K) was 16.01 ± 0.41 mPa·s, the speed of sound ([1]; 343.15 K) was 1708 ± 5 m/s and the mass density ([1]; 343.15 K) was 1295.7 ± 3.4 kg/m3. For the same compound, the refractive index ([2]; 283.15 K) was 1.48659 ± 0.001, the refractive index ([2]; 288.15 K) was 1.48525 ± 0.001 and the refractive index ([2]; 293.15 K) was 1.48392 ± 0.001. It also gave a refractive index ([2]; 298.15 K) of 1.4827 ± 0.001, a refractive index ([2]; 303.15 K) of 1.48129 ± 0.001 and a refractive index ([2]; 308.15 K) of 1.47999 ± 0.001. It also gave a refractive index ([2]; 313.15 K) of 1.47867 ± 0.001, a refractive index ([2]; 318.15 K) of 1.47726 ± 0.001 and a refractive index ([2]; 323.15 K) of 1.47593 ± 0.001. For the same compound, the refractive index ([2]; 328.15 K) was 1.47421 ± 0.001, the refractive index ([2]; 333.15 K) was 1.47294 ± 0.001 and the refractive index ([2]; 338.15 K) was 1.47154 ± 0.001. It also gave a refractive index ([2]; 343.15 K) of 1.47027 ± 0.001.
